Assay results: patent US11723589B2 (The General Hospital Corporation, priority 2010, dated 2023)
Where “and” joins values, the source holds several entries; their conditions need not be identical. Equal entries are not always repeated. Entries after “also recorded” stand apart in the source; their conditions may differ.

Legend:
Male Sprague-Dawley rats [1] = assay: Electroencephalogram recording and spectral analysis during continuous isoflurane; format: in vivo, rat; settings: isoflurane 1.0%
Method: Electroencephalogram electrode placement, recording, and spectral analysis. Extradural electroencephalogram electrodes were surgically implanted at least 7 days prior to recording. General anesthesia was induced with xylazine (5-10 mg/kg IP) and ketamine (50-100 mg/kg IP), and supplemented with isoflurane (1-2%). A microdrill was used to make four holes at the following stereotactic coordinates: A0L0, A6L3, A6L-3, and A10L2 relative to the lambda.^12 Polytetrafluoroethylene coated, 200 μm diameter stainless steel electrode wires (A-M Systems, Sequim, Wash.) were inserted and secured with small stainless steel screws, and permanently fixed with dental acrylic cement. Carprofen (5 mg/kg SC) was administered for analgesia on the day of surgery, as well as on post-operative days 1, and 2. The potential difference between electrodes A0L0 and A6L3, or between electrodes A0L0 and A6L-3 (whichever gave less motion artifact), was referenced to A10L2 and recorded using a QP511 Quad AC Amplifier System (Grass Instruments, West Warwick, R.I.) and a USB-6009 14-bit data acquisition board (National Instruments, Austin, Tex.). Data was filtered between 0.3-100 Hz. No line filter was used. The sampling rate was 512 Hz. After baseline recordings were taken for 10 minutes while awake, rats were anesthetized with isoflurane and placed in the anesthetizing chamber. […] Therefore the inventors performed the electroencephalogram experiments in the prone position with the isoflurane dose fixed at 1.0%. These modifications allowed us to minimize electroencephalogram motion artifacts without restraining the animals. After a minimum isoflurane exposure of 40 minutes, normal saline was administered and the temperature probe was removed. Five minutes later, methylphenidate was administered. Spectral analysis was performed using Matlab 7.11 (Mathworks, Natick, Mass.) and the Chronux software (Cold Spring Harbor, N.Y.). 13 Spectrograms were calculated using sliding windows of 2 sec duration stepped through 0.05 sec. For each window, multitaper spectrum estimation was performed using 5 tapers. […]

Male Sprague-Dawley rats [2] = assay: Arterial blood gas analysis during isoflurane general anesthesia; format: in vivo, rat
Method: (§1) Arterial Blood Gas and Hemodynamic Recordings. Rats with femoral artery catheters (Charles River Laboratories, Wilmington, Mass.) were placed in the anesthetizing chamber after lateral tail vein IV catheter placement. The isoflurane dose was kept constant at 1.5%. Mean arterial blood pressure and heart rate were measured using a pressure transducer (TruWave, Edwards Life Sciences, Irvine, Calif.) interfaced with a custom-built amplifier (AD620 operational amplifier, Jameco Electronics, Belmont, Calif.). […] Samples were promptly analyzed using CG4+ cartridges in a Vetscan iStat 1 (Abaxis, Union City, Calif.) blood gas analyzer.
To provide a conservative check on the assessments made by the 95% confidence intervals and the parametric tests and non-parametric tests were also used to assess statistical significance. The Mann-Whitney test was used to test the hypothesis that methylphenidate hastens time to emergence from isoflurane general anesthesia, and to test the dose-dependence of methylphenidate on time to righting during continuous isoflurane general anesthesia. A paired t-test was used to test the hypothesis that methylphenidate produces a respiratory alkalosis during isoflurane general anesthesia. The inventors used the two-sided Kolmogorov-Smirnov test with a Bonferonni correction to compare spectra in animals before and after receiving methylphenidate. The inventors considered a result to be statistically significant based on the 95% confidence intervals comparing two groups if zero was not in the interval, based on hypothesis tests if the p-values were less than 0.05 or in the case of the Bayesian analyses, if the relevant posterior probability was greater than 0.95.

rats [3] = assay: Restoration of righting and EEG during continuous propofol anesthesia; format: in vivo, rat; settings: MPH 5 mg/kg IV, continuous propofol infusion
Method: For the second experiment, 2 IV catheters were placed and a continuous propofol infusion was started in rats with pre-implanted EEG electrodes. After establishing the minimum plasma concentration of propofol required to maintain loss of righting, the second IV catheter was flushed with NS, and 5 minutes later MPH (5 mg/kg) was administered.

[4] = biological target: norepinephrine transporter (Homo sapiens, UniProt P23975); settings: read-out: Ki, norepinephrine transporter; cited from earlier work
norepinephrine transporter, sequence (P23975 whole entry): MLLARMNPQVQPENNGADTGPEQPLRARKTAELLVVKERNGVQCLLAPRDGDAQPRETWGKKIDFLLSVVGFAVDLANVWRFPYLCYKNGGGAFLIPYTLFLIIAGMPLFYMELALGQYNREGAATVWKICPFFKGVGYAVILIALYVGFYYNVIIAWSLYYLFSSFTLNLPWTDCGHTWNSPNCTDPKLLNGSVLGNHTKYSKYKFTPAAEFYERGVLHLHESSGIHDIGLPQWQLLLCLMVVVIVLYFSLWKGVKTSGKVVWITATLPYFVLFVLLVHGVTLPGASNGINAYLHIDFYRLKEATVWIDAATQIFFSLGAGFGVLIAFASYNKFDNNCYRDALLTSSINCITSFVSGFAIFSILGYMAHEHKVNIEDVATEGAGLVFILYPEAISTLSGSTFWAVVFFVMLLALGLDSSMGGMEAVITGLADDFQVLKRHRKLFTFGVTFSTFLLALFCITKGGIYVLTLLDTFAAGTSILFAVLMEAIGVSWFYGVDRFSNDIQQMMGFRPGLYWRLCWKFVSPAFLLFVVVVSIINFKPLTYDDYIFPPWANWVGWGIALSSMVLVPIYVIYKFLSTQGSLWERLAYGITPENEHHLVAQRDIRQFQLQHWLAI

rats [5] = assay: Time to emergence after a single dose of propofol; format: in vivo, rat; settings: propofol 8 mg/kg IV, MPH 5 mg/kg IV 45 sec later; mean±SE; n=6
Method: For the first experiment, a lateral tail vein IV catheter was placed in rats under isoflurane anesthesia. […] Time to emergence was defined as the time until restoration of righting occurred. Statistical analysis was performed using the Mann-Whitney test.

rats [6] = assay: D-MPH versus L-MPH reversal of isoflurane anesthesia, loss of righting reflex (LORR); format: in vivo, rat; settings: for reversal of isoflurane-induced general anesthesia: intravenous, rat animal model; for rats with restoration of consciousness: intravenous dose of 0.5 mg/kg; for rats with restoration of consciousness / rate of % recovery of consciousness / time to emergence, D-MPH compared with L-MPH: isoflurane anesthesia; for rate of % recovery of consciousness / time to emergence, D-MPH compared with L-MPH: FIG. 7
Description: Pure D-MPH (Focalin) is currently available in oral form for Attention Deficit Hyperactivity Disorder (ADHD), but it is not available for intravenous use.

Male Sprague-Dawley rats [7] = assay: Hemodynamic recordings (mean arterial blood pressure, heart rate) during isoflurane general anesthesia; format: in vivo, rat; settings: individual animals, isoflurane 1.5%
Method: as §1

Male Sprague-Dawley rats [8] = assay: Time to emergence after a standardized isoflurane general anesthetic; format: in vivo, rat
Description: Animal Care and Use. Animal studies were approved by the Subcommittee on Research Animal Care, Massachusetts General Hospital, Boston, Mass. Male Sprague-Dawley rats (Charles River Laboratories, Wilmington, Mass.) weighing 351-565 grams were used. […] Separate groups of animals were used for the electroencephalogram (4 rats), plethysmography (4 rats), and blood gas studies (6 rats). In animals that underwent multiple experiments, each animal was provided with at least 3 days of rest between experiments. Animals were kept on a standard day-night cycle (lights on at 7 AM, and off at 7 PM), and all experiments were performed during the day.
Preparation and Delivery of Drugs. […] Droperidol was diluted in normal saline to a final volume of 0.5 ml prior to administration. […]

Male Sprague-Dawley rats [9] = assay: Return of righting during continuous isoflurane general anesthesia; format: in vivo, rat
Description: Anesthetizing Protocol. Rats were anesthetized in an induction chamber with 2-3% isoflurane in oxygen prior to placement of a lateral tail vein intravenous catheter (24 gauge, 19 mm). A rectal temperature probe was inserted and the animal was placed in a cylindrical acrylic anesthetizing chamber. The chamber was custom-built and equipped with ports for anesthetic gas delivery, sampling, and scavenging, as well as intravenous drug administration. A heating pad was placed under the chamber to keep the animal warm, and the body temperature was kept between 36.5° C. and 37.4° C.
The rat was positioned supine in the anesthetizing chamber and the inhaled concentration of isoflurane was initially fixed at 2.0% for 20 minutes, then reduced to 0.8% over 15-20 minutes, and then maintained at 0.8% for 40 minutes. If the rat made any purposeful movement, the isoflurane concentration was increased by 0.1% and maintained for another 40 minutes. This process was repeated until the final dose of isoflurane sufficient to maintain loss of righting reflex was established, and this dose was administered throughout the remainder of the experiment. This protocol was based on previously published methods described by Alkire et al.^4,11 After the final 40-minute equilibration period, normal saline (2 ml) was administered and the rectal temperature probe was removed. Five minutes later, methylphenidate was administered.
Prism 4.03 (Graphpad Software, San Diego, Calif.) and Matlab (Mathworks, Natick, Mass.) were used for statistical analysis and where possible, results are reported in terms of 95% confidence intervals based on z-tests, t-tests or Mann-Whitney tests. […] For this computation the inventors assumed a binomial model as the sampling density or likelihood function for the propensity of animals in a given group to have return of the righting response. The inventors took as the prior density for each group the uniform density on the interval (0, 1) because it is uninformative. Because of the conjugacy between the prior and the likelihood the posterior density for each group is a beta density.^17 The posterior densities for the differences in the proportion of animals that had return of righting were then computed by using standard Matlab simulation procedures. Instead of p-values for the Bayesian analyses the inventors computed the posterior probability that the propensity to right was greater in on group compared to the other.

Male Sprague-Dawley rats [10] = assay: Plethysmography during isoflurane general anesthesia; settings: for Change in mean RR: after vs before methylphenidate 5 mg/kg IV
Description: Plethysmography. Rats were placed in a custom built plethysmography chamber and the isoflurane concentration in the chamber was maintained at 1.5%. […] A differential pressure transducer and demodulator (Models CD15 and MP45-14-871; Validyne Engineering, Northridge, Calif.) were used to convert the chamber pressure to an analog signal. The signal was high pass filtered at 15 sec, acquired at 100 Hz, and analyzed in four second epochs using a USB-6009 data acquisition board (National Instruments, Austin, Tex.) and LabView Software (version 8.5 for Macintosh). Chamber carbon dioxide levels were maintained at or less than 0.5% in the open flow configuration. A heating pad was used to warm the rat from beneath. Chamber air temperature and relative humidity were measured with a thermometer-hygrometer (Fisher Scientific, Pittsburgh, Pa.) and used to estimate tidal volumes during intermittent chamber closure using methods described by Drorbaugh et al.^16

[11] = children treated with racemic methylphenidate; cited from earlier work
mice [12] = settings: cited from earlier work
rats [13] = settings: 3 mg/kg of droperidol; cited from earlier work
mice [14] = settings: uninstrumented mice, rotating anesthetizing chamber; cited from earlier work
[15] = arterial blood 15 minutes after methylphenidate, isoflurane 1.5%, n = 6
[16] = after vs before methylphenidate 5 mg/kg IV, listed as Methylphenidate
[17] = individual animals pretreated with droperidol (0.5 mg/kg IV), isoflurane 1.5%
[18] = individual animals pretreated with normal saline, isoflurane 1.5%

## COC(=O)[C@H](c1ccccc1)[C@H]1CCCCN1 (racemic) [methylphenidate]
Male Sprague-Dawley rats [1]; droperidol 0.5 mg/kg IV five minutes before methylphenidate 5 mg/kg IV
  EEG changes after methylphenidate with droperidol pretreatment: did not induce electroencephalogram changes consistent with arousal; also recorded: failed to induce these electroencephalogram changes; also recorded: the shift in peak power from delta to theta was absent
Male Sprague-Dawley rats [1]; methylphenidate 5 mg/kg IV
  persistence of the active EEG pattern: more than 15 minutes
Male Sprague-Dawley rats [2]; [15]
  P2CO2 after 5 mg/kg IV Methylphenidate (mean): 35 mmHg
  P2O2 after 5 mg/kg IV Methylphenidate (mean): 241 mmHg
  pH after 5 mg/kg IV Methylphenidate (mean): 7.51
Male Sprague-Dawley rats [2]; from paCO2 pre/post methylphenidate, assuming no change in baseline metabolism
  calculated increase in alveolar ventilation (VA): 24±6%
Rats [3]
  rats with signs of arousal and restoration of righting within 4 min: 5/6
Rats [3]; one rat
  time to restoration of righting in the rat with delayed arousal response: 25 min
[4]
  Ki: 150 nM
Rats [5]
  time to emergence (restoration of righting) after a single dose of propofol: 433 ± 24 s
Rats [6]
  reversal of isoflurane-induced general anesthesia: rapidly reversed isoflurane-induced general anesthesia
Male Sprague-Dawley rats [7]; after vs before methylphenidate 5 mg/kg IV
  Change in HR (mean): 6 beats per minute and 15 beats per minute
Male Sprague-Dawley rats [7]; [16]
  Change in HR (mean): −14.2 beats per minute and −7.2 beats per minute and +13.9 beats per minute and +0.72 beats per minute and +0.5 beats per minute and −2.6 beats per minute
  Change in MAP (mean): +20.5 mmHg and +8.3 mmHg and +3.2 mmHg and −1.4 mmHg and +0.5 mmHg and +7.4 mmHg
Male Sprague-Dawley rats [7]
  HR after 5 mg/kg IV Methylphenidate (mean): 386.8 beats per minute and 383.3 beats per minute and 365.5 beats per minute and 360.0 beats per minute and 358.6 beats per minute
  MAP after 5 mg/kg IV Methylphenidate (mean): 117.1 mmHg and 90.9 mmHg and 91.3 mmHg and 85.2 mmHg and 100.7 mmHg and 90.8 mmHg
Male Sprague-Dawley rats [8]; methylphenidate 5 mg/kg IV five minutes before end of 45 min isoflurane 1.5%, n=12
  median time to emergence (termination of isoflurane to return of righting): 91 s
Male Sprague-Dawley rats [8]; methylphenidate 5 mg/kg IV, isoflurane 1.5%
  median difference in time to emergence versus normal saline: 200 s
Male Sprague-Dawley rats [9]; 0.5 mg/kg IV, continuous inhalation of isoflurane
  median time to righting after methylphenidate: 348 s
Male Sprague-Dawley rats [9]; 5 mg/kg IV, continuous inhalation of isoflurane
  median time to righting after methylphenidate: 181 s
Male Sprague-Dawley rats [9]; continuous inhalation of isoflurane
  median difference in time to righting between 0.5 and 5 mg/kg: 173 s
Male Sprague-Dawley rats [9]; droperidol 0.5 mg/kg IV five minutes before methylphenidate 5 mg/kg IV, continuous isoflurane, n=6
  return of righting after droperidol pretreatment: None of these animals had return of righting; also recorded: did not induce return of righting in any of the six animals
Male Sprague-Dawley rats [9]; methylphenidate 0.05 mg/kg IV, continuous isoflurane, six rats
  signs of arousal: no signs of arousal
Male Sprague-Dawley rats [9]; methylphenidate 0.5 mg/kg IV, continuous isoflurane
  return of righting (rats): 11 of 12
Male Sprague-Dawley rats [9]; methylphenidate 5 mg/kg IV after normal saline, continuous isoflurane
  return of righting (rats): 11 of 12
Male Sprague-Dawley rats [9]; methylphenidate 5 mg/kg, all 12 rats, continuous isoflurane
  time to purposeful movements: ≤ 30 s
Male Sprague-Dawley rats [10]; [17]
  Change in mean RR: +4.4 breaths per minute and +2.2 breaths per minute and +3.6 breaths per minute and +4.9 breaths per minute
  RR after 5 mg/kg IV Methylphenidate (mean): 86.3 breaths per minute and 78.0 breaths per minute and 84.1 breaths per minute and 75.5 breaths per minute
Male Sprague-Dawley rats [10]; [18]
  Change in mean RR: +29.2 breaths per minute and +9.8 breaths per minute and +50.36 breaths per minute and +18.9 breaths per minute
  RR after 5 mg/kg IV Methylphenidate (mean): 154 breaths per minute and 112.6 breaths per minute and 94.2 breaths per minute and 153.8 breaths per minute and 116.7 breaths per minute
Male Sprague-Dawley rats [10]; methylphenidate 5 mg/kg IV after droperidol 0.5 mg/kg IV, four rats, one increase, three decreases
  changes in tidal volume: 4-17%
Male Sprague-Dawley rats [10]; methylphenidate 5 mg/kg IV after normal saline, isoflurane 1.5%
  changes in tidal volume: the changes were small and inconsistent
Male Sprague-Dawley rats [10]; methylphenidate 5 mg/kg IV after normal saline, isoflurane 1.5%, listed as Methylphenidate
  changes in tidal volume: tidal volume remained essentially unchanged

## COC(=O)C(c1ccccc1)C1CCCCN1 [D-MPH, D-threo-methylphenidate]
[11]
  increase in plasma levels: 5 fold
Rats [6]
  rats with restoration of consciousness: 83%
  reversal of isoflurane-induced general anesthesia: rapidly reversed isoflurane-induced general anesthesia
  rate of % recovery of consciousness / time to emergence, D-MPH compared with L-MPH: at a quicker rate than L-MPH
Rats [6]; listed as D-MGH
  rate of % recovery of consciousness / time to emergence, D-MPH compared with L-MPH: faster

## COC(=O)[C@@H](c1ccccc1)[C@@H]1CCCCN1 [L-MPH, L-threo-methylphenidate]
Rats [6]
  rats with restoration of consciousness: 33%
  reversal of isoflurane-induced general anesthesia: rapidly reversed isoflurane-induced general anesthesia

## O=C(CCCN1CC=C(n2c(=O)[nH]c3ccccc32)CC1)c1ccc(F)cc1 [droperidol]
Male Sprague-Dawley rats [1]; droperidol 0.5 mg/kg IV
  EEG pattern change after droperidol: no appreciable change
Mice [12]
  EC50 for loss of righting: 40 mg/kg
Rats [13]
  effect on isoflurane potency: no effect on isoflurane potency
Male Sprague-Dawley rats [9]; droperidol 0.5 mg/kg IV, continuous isoflurane, n=6
  purposeful movement in response to droperidol: None of the animals exhibited purposeful movement

## FC(F)OC(Cl)C(F)(F)F (stereo not shown) [isoflurane]
Mice [14]
  dose for loss of righting: 0.81%
Male Sprague-Dawley rats [9]; inhaled, rats, mean±SD
  dose of isoflurane sufficient to maintain loss of righting: 0.9%±0.1% and 0.9%
